# Laboratory results from US20240327407A1, “NOVEL INHIBITORS OF AUTOTAXIN” (CADILA HEAL THCARE LIMITED, priority 2021, published 2024).
# Molecular target: ATX (Mus musculus (Mouse), UniProt Q9R1E6)
# Test: Mice serum ATX inhibitory activity (IC50 determination)
# Format: biochemical
# Method: ATX Inhibitory activity was determined in a biochemical or whole blood assay as described previously (Bretschneider, T. et al., SLAS Discov 2017, 22, 425). The biochemical reaction consisted of 50 mM Tris (pH 8.0), 3 mM KCl, 1 mM CaCl2, 1 mM Mg Cl2, […] NaCl and 0.1% bovine serum albumin, which was supplemented with 5 nM recombinant rat ATX, 5 μM 18:1 LPC and the test compound (0.1-10 μM). The reaction was stopped at 2 h by the addition of butanol, prior to the RapidFire-MS-based analysis.
# The whole blood assay consisted of 45 μL μL heparinized mice/rat whole blood and the test compound (0.12-100 μM). The reaction was stopped after 1 h at 37° C. by addition of 100 μL 40 mM disodium hydrogen phosphate buffer containing 30 mM citric acid (pH 4) and 1 μM 17:0 LPA (internal standard). Afterwards the samples were treated a described above and analysed by LC-MS/MS. The data was analyzed using graph pad prism (v 7.03) to arrive at the half-maximal inhibitory concentrations (IC50) of the test compounds.
row,SMILES,IC50
1,"COC(=O)N1CC(c2ccc(F)cc2)C2(CCN(C(=O)[C@H](NC(=O)c3cc(C(F)(F)F)ccc3F)C(C)C)CC2)C1 (stereo partly drawn) [Compound 130, methyl 8-((2-fluoro-5-(trifluoromethyl)benzoyl)-D-valyl)-4-(4-fluorophenyl)-2,8-diazaspiro[4.5]decane-2-carboxylate]",59.7 nM
2,"CC(C)[C@@H](NC(=O)c1cc(C(F)(F)F)ccc1F)C(=O)N1CCC2(CC1)C(=O)NCC2c1ccc(F)cc1 (stereo partly drawn) [Compound 102, 2-fluoro-N-((2R)-1-(4-(4-fluorophenyl)-1-oxo-2,8-diazaspiro[4.5]decan-8-yl)-3-methyl-1-oxobutan-2-yl)-5-(trifluoromethyl)benzamide]",22.6 nM
3,"CC(C)[C@@H](NC(=O)c1cc(C(F)(F)F)ccc1F)C(=O)N1CCC2(CC1)C(=O)N(CC1CC1)CC2c1ccc(F)cc1 (stereo partly drawn) [Compound 112, N-((2R)-1-(2-(cyclopropylmethyl)-4-(4-fluorophenyl)-1-oxo-2,8-diazaspiro[4.5]decan-8-yl)-3-methyl-1-oxobutan-2-yl)-2-fluoro-5-(trifluoromethyl)benzamide]",73.4 nM
4,"Cc1ccnc(C(=O)N[C@@H](C(=O)N2CCC3(CC2)CN(C)CC3c2ccc(F)cc2)C(C)C)c1 (stereo partly drawn) [Compound 129, N-((2R)-1-(4-(4-fluorophenyl)-2-methyl-2,8-diazaspiro-[4.5]decan-8-yl)-3-methyl-1-oxobutan-2-yl)-4-methylpicolinamide]",3.4 nM
5,"CN1CC(c2ccc(F)cc2)C2(CCN(C(=O)[C@H](NC(=O)c3cc(C(F)(F)F)ccc3F)C3CCCCC3)CC2)C1 (stereo partly drawn) [Compound 142, N-((1R)-1-cyclohexyl-2-(4-(4-fluorophenyl)-2-methyl-2,8-diazaspiro[4.5]decan-8-yl)-2-oxoethyl)-2-fluoro-5-(trifluoromethyl)benzamide]",4.4 nM
6,"CC(C)[C@@H](NC(=O)c1cc(C(F)(F)F)ccc1F)C(=O)N1CCC2(CC1)CN(C)CC2c1ccc(C(=O)O)cc1 (stereo partly drawn) [Compound 132, 4-(8-((2-fluoro-5-(trifluoromethyl)benzoyl)-D-valyl)-2-methyl-2,8-diazaspiro[4.5]decan-4-yl)benzoic acid]",1.1 nM
7,"CC(C)[C@@H](NC(=O)c1cc(C(F)(F)F)ccc1F)C(=O)N1CCC2(CC1)C(=O)NCC2c1cccnc1 (stereo partly drawn) [Compound 57, 2-fluoro-N-((2R)-3-methyl-1-oxo-1-(1-oxo-4-(pyridin-3-yl)-2,8-diazaspiro[4.5]decan-8-yl)butan-2-yl)-5-(trifluoromethyl)benzamide]",56.2 nM
8,"CCOC(=O)N1CC(c2ccc(F)cc2)C2(CCN(C(=O)[C@H](NC(=O)c3cc(C(F)(F)F)ccc3F)C(C)C)CC2)C1 (stereo partly drawn) [Compound 131, ethyl 8-((2-fluoro-5-(trifluoromethyl)benzoyl)-D-valyl)-4-(4-fluorophenyl)-2,8-diazaspiro[4.5]decane-2-carboxylate]",150 nM
9,"CC(C)[C@@H](NC(=O)c1cc(C(F)(F)F)ccc1F)C(=O)N1CCC2(CC1)OC(=O)NC2c1ccccc1 (stereo partly drawn) [Compound 115, 2-fluoro-N-((2R)-3-methyl-1-oxo-1-(2-oxo-4-phenyl-1-oxa-3,8-diazaspiro[4.5]decan-8-yl)butan-2-yl)-5-(trifluoromethyl)benzamide]",74.4 nM
10,CCc1nc2c(C)cc(N3CCN(CC(=O)N4CC(O)C4)CC3)cn2c1N(C)c1nc(-c2ccc(F)cc2)c(C#N)s1 [GLPG1690],508 nM
11,"CC(C)[C@@H](NC(=O)c1cc(C(F)(F)F)ccc1F)C(=O)N1CCC2(CC1)CN(C)C[C@H]2c1ccc(F)cc1 [Compound 134, 2-fluoro-N-((R)-1-((S)-4-(4-fluorophenyl)-2-methyl-2,8-diazaspiro[4.5]decan-8-yl)-3-methyl-1-oxobutan-2-yl)-5-(trifluoromethyl)benzamide]",7.8 nM
12,"CC(C)[C@@H](NC(=O)c1cc(C(F)(F)F)ccc1F)C(=O)N1CCC2(CC1)CC(=O)N(C)CC2c1ccc(F)cc1 (stereo partly drawn) [Compound 176, 2-fluoro-N-((2R)-1-(7-(4-fluorophenyl)-9-methyl-10-oxo-3,9-diazaspiro[5.5]undecan-3-yl)-3-methyl-1-oxobutan-2-yl)-5-(trifluoromethyl)benzamide]",7.5 nM
13,"CC(C)[C@@H](NC(=O)c1cc(C(F)(F)F)ccc1F)C(=O)N1CCC2(CC1)CN(C)CC2c1cccnc1 (stereo partly drawn) [Compound 64, 2-fluoro-N-((2R)-3-methyl-1-(2-methyl-4-(pyridin-3-yl)-2,8-diazaspiro[4.5]decan-8-yl)-1-oxobutan-2-yl)-5-(trifluoromethyl)benzamide]",13.4 nM
14,"Cc1ccc(C2CN(C)CC23CCN(C(=O)[C@H](NC(=O)c2cc(C(F)(F)F)ccc2F)C(C)C)CC3)cc1 (stereo partly drawn) [Compound 136, 2-fluoro-N-((2R)-3-methyl-1-(2-methyl-4-(p-tolyl)-2,8-diazaspiro[4.5]decan-8-yl)-1-oxobutan-2-yl)-5-(trifluoromethyl)benzamide]",2.2 nM
15,"CC(C)[C@@H](NC(=O)c1cc(Cl)ccc1Cl)C(=O)N1CCC2(CC1)CN(C)CC2c1ccc(F)cc1 (stereo partly drawn) [Compound 151, 2,5-dichloro-N-((2R)-1-(4-(4-fluorophenyl)-2-methyl-2,8-diazaspiro[4.5]decan-8-yl)-3-methyl-1-oxobutan-2-yl)benzamide]",130 nM
16,"CC(C)[C@@H](NC(=O)c1cc(F)ccc1F)C(=O)N1CCC2(CC1)CN(C)CC2c1ccc(F)cc1 (stereo partly drawn) [Compound 149, 2,5-difluoro-N-((2R)-1-(4-(4-fluorophenyl)-2-methyl-2,8-diazaspiro[4.5]decan-8-yl)-3-methyl-1-oxobutan-2-yl)benzamide]",47.3 nM

# Continued, values first:
row,IC50,SMILES
1,66.8 nM,"CC(C)[C@@H](NC(=O)c1ccccc1F)C(=O)N1CCC2(CC1)C(=O)N(C)CC2c1ccccc1 (stereo partly drawn) [Compound 107, 2-fluoro-N-((2R)-3-methyl-1-(2-methyl-1-oxo-4-phenyl-2,8-diazaspiro[4.5]decan-8-yl)-1-oxobutan-2-yl)benzamide]"
2,6.9 nM,"CC(C)[C@@H](NC(=O)c1cc(C(F)(F)F)ccc1F)C(=O)N1CCC2(CC1)C(=O)N(C)CC2c1ccc(F)cc1 (stereo partly drawn) [Compound 103, 2-fluoro-N-((2R)-1-(4-(4-fluorophenyl)-2-methyl-1-oxo-2,8-diazaspiro[4.5]decan-8-yl)-3-methyl-1-oxobutan-2-yl)-5-(trifluoromethyl)benzamide]"
3,3.8 nM,"CC(C)[C@@H](NC(=O)c1cc(OC(F)(F)F)ccc1F)C(=O)N1CCC2(CC1)C(=O)N(C)CC2c1ccccc1 (stereo partly drawn) [Compound 110, 2-fluoro-N-((2R)-3-methyl-1-(2-methyl-1-oxo-4-phenyl-2,8-diazaspiro[4.5]decan-8-yl)-1-oxobutan-2-yl)-5-(trifluoromethoxy)benzamide]"
4,6.6 nM,"CC(C)[C@@H](NC(=O)c1cc(C(F)(F)F)ccc1F)C(=O)N1CCC2(CC1)CN(C)CC2c1ccccc1 (stereo partly drawn) [Compound 62, 2-fluoro-N-((2R)-3-methyl-1-(2-methyl-4-phenyl-2,8-diazaspiro[4.5]decan-8-yl)-1-oxobutan-2-yl)-5-(trifluoromethyl)benzamide]"
5,3.5 nM,"CC(C)[C@@H](NC(=O)c1cc(C(F)(F)F)ccc1F)C(=O)N1CCC2(CC1)CC(=O)NCC2c1ccccc1 (stereo partly drawn) [Compound 163, 2-fluoro-N-((2R)-3-methyl-1-oxo-1-(10-oxo-7-phenyl-3,9-diazaspiro[5.5]undecan-3-yl)butan-2-yl)-5-(trifluoromethyl)benzamide]"
6,69.8 nM,"CC(C)[C@@H](NC(=O)c1cc(C(F)(F)F)ccc1F)C(=O)N1CCC2(CC1)C(=O)N(CCN)C(=O)C2c1ccccc1 (stereo partly drawn) [Compound 33, N-((2R)-1-(2-(2-aminoethyl)-1,3-dioxo-4-phenyl-2,8-diazaspiro[4.5]decan-8-yl)-3-methyl-1-oxobutan-2-yl)-2-fluoro-5-(trifluoromethyl)benzamide]"
7,4 nM,"CC(C)[C@@H](NC(=O)c1cc(C(F)(F)F)ccc1F)C(=O)N1CCC2(CC1)C(=O)N(C)CC2c1ccccc1 (stereo partly drawn) [Compound 44, 2-fluoro-N-((2R)-3-methyl-1-(2-methyl-1-oxo-4-phenyl-2,8-diazaspiro[4.5]decan-8-yl)-1-oxobutan-2-yl)-5-(trifluoromethyl)benzamide]"
8,13.3 nM,"CC(C)[C@@H](NC(=O)c1cc(C(F)(F)F)ccc1F)C(=O)N1CCC2(CC1)C(=O)N(C)CC2c1cccnc1 (stereo partly drawn) [Compound 56, 2-fluoro-N-((2R)-3-methyl-1-(2-methyl-1-oxo-4-(pyridin-3-yl)-2,8-diazaspiro[4.5]decan-8-yl)-1-oxobutan-2-yl)-5-(trifluoromethyl)benzamide]"
9,16.4 nM,"CC(C)[C@@H](NC(=O)c1cccc(C(F)(F)F)c1)C(=O)N1CCC2(CC1)C(=O)N(C)CC2c1ccccc1 (stereo partly drawn) [Compound 108, N-((2R)-3-methyl-1-(2-methyl-1-oxo-4-phenyl-2,8-diazaspiro[4.5]decan-8-yl)-1-oxobutan-2-yl)-3-(trifluoromethyl)benzamide]"
10,58.9 nM,"CC(C)[C@@H](NC(=O)c1cc(C(F)(F)F)ccc1F)C(=O)N1CCC2(CC1)C(=O)N(C)CC2c1ccc2[nH]ncc2c1 (stereo partly drawn) [Compound 58, N-((2R)-1-(4-(1H-indazol-5-yl)-2-methyl-1-oxo-2,8-diazaspiro[4.5]decan-8-yl)-3-methyl-1-oxobutan-2-yl)-2-fluoro-5-(trifluoromethyl)benzamide]"
11,11.2 nM,"CC(C)[C@@H](NC(=O)c1cc(C(F)(F)F)ccc1F)C(=O)N1CCC2(CC1)CC(=O)N(C)CC2c1ccccc1 (stereo partly drawn) [Compound 174, 2-fluoro-N-((2R)-3-methyl-1-(9-methyl-10-oxo-7-phenyl-3,9-diazaspiro[5.5]undecan-3-yl)-1-oxobutan-2-yl)-5-(trifluoromethyl)benzamide]"
